The target of test [1] is T1, DDR2 (Homo sapiens, UniProt Q16832).
T1 construct: purchased Life Technologies
T1 sequence (Q16832 22-855): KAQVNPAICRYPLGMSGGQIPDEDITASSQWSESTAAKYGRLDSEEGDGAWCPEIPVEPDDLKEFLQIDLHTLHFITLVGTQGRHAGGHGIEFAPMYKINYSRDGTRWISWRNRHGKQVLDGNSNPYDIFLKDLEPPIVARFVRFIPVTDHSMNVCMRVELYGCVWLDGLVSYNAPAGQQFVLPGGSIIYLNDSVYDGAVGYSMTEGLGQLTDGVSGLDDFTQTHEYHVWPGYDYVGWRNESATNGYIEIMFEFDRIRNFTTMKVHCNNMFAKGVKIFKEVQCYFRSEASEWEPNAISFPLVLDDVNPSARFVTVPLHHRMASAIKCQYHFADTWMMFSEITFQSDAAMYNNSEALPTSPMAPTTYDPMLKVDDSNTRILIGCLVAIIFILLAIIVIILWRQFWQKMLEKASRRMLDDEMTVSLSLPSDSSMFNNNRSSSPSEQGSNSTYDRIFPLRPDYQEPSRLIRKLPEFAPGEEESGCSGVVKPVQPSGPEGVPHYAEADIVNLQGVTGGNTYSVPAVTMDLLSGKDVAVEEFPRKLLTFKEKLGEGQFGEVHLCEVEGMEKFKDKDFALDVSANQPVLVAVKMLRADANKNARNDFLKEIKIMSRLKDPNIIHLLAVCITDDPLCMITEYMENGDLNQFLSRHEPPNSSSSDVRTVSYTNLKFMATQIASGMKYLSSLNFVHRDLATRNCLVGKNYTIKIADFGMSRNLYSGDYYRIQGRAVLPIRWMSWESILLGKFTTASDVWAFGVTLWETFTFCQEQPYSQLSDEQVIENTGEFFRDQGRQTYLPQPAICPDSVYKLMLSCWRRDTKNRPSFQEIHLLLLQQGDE
In words: LanthaScreen Europium Kinase Binding assay, DDR2. The note with it: 5 nM DDR2, 10 nM Kinase Tracer 178, 1 h at rt; Ki from IC50 by Cheng-Prusoff; read-out: Ki DDR2. How it is done: (§1) DDR1 and DDR2 binding assays were performed using Life Technologies LanthaScreen™ Europium Kinase Binding assay. […] IC50 values were determined in GraphPad Prism 7.0 software, using 4 parameter model: log (inhibitor) vs. response. IC50 values were converted in Ki using the Cheng-Prusoff equation (Ki-IC50/(1+ [Tracer]/Kd).

In test [2] the target is T2, DDR1 (Homo sapiens, UniProt Q08345).
T2 construct: purchased Carna Biosciences
In words: LanthaScreen Europium Kinase Binding assay, DDR1. Particulars: 5 nM DDR1, 20 nM Kinase Tracer 178, 1 h at rt; Ki from IC50 by Cheng-Prusoff; read-out: Ki DDR1. How it is done: as §1

Some results are limits rather than exact numbers.

T2 sequence (Q08345 19-913): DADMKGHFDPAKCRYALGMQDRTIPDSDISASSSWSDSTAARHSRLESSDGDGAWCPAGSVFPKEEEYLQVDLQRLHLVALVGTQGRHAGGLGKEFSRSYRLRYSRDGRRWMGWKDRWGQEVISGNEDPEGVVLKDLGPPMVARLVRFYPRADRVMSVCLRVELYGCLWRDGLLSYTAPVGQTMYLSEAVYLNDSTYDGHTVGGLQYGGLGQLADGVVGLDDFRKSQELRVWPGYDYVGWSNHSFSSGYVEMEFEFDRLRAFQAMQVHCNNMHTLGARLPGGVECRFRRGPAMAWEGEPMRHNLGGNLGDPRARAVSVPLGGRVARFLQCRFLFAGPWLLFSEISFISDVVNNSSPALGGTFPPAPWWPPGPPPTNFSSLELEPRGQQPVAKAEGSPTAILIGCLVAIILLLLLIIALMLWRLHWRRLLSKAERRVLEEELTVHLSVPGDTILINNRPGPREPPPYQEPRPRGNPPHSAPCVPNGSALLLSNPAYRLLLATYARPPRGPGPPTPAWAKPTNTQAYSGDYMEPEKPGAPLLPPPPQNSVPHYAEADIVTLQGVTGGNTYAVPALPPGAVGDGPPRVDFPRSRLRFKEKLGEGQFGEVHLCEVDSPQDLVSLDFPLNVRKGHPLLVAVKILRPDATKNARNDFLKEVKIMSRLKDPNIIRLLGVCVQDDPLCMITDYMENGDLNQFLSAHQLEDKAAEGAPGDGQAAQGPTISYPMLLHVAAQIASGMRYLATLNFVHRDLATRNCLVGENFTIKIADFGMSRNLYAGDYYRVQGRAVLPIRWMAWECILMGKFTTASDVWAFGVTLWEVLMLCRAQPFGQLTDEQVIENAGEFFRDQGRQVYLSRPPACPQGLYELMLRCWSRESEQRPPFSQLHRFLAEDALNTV

For `Cc1ncc(-c2ccc3c(C(=O)N4CC5(CC(N(C)C(=O)Nc6cncc(C(F)(F)F)c6)C5)C4)cnn3c2)cn1` [Example 246, 1-methyl-1-(2-(6-(2-methylpyrimidin-5-yl)pyrazolo[1,5-a]pyridine-3-carbonyl)-2-azaspiro[3.3]heptan-6-yl)-3-(5-(trifluoromethyl)pyridin-3-yl)urea], the Ki was in the range of 25 to 100 nM in test [1] and 5 to 25 nM in test [2].
On to `CN(C(=O)Nc1cc(C(C)(C)C)on1)C1CC2(C1)CN(C(=O)c1cnn3ccn(C)c13)C2` [Example 222, 3-(5-(tert-butyl)isoxazol-3-yl)-1-methyl-1-(2-(1-methyl-1H-imidazo[1,2-b]pyrazole-7-carbonyl)-2-azaspiro[3.3]heptan-6-yl)urea], for which the Ki in test [1] was in the range of 25 to 100 nM; in test [2] it was 5 to 25 nM.
In the case of `O=C(Nc1cccc(C(F)(F)F)c1)NC1CC2(C1)CN(C(=O)c1cnc3ccccn13)C2` [Example 1, 1-(2-(imidazo[1,2-a]pyridine-3-carbonyl)-2-azaspiro[3.3]heptan-6-yl)-3-(3-(trifluoromethyl)phenyl)urea], the Ki in test [1] is 5 to 25 nM; in test [2], below 5 nM.
The corresponding values for `CN(C(=O)Nc1cc(C#N)cc(C(F)(F)F)c1)C1CC2(C1)CN(C(=O)c1cnn3ccn(C)c13)C2` [Example 53, 3-(3-cyano-5-(trifluoromethyl)phenyl)-1-methyl-1-(2-(1-methyl-1H-imidazo[1,2-b]pyrazole-7-carbonyl)-2-azaspiro[3.3]heptan-6-yl)urea] are 5 to 25 nM and below 5 nM.
For `O=C(Nc1cccc(C(F)(F)F)c1)NC1CC2(C1)CN(c1ccnc3[nH]ncc13)C2` [Example 15, 1-(2-(1H-pyrazolo[3,4-b]pyridin-4-yl)-2-azaspiro[3.3]heptan-6-yl)-3-(3-(trifluoromethyl)phenyl)urea], the Ki in test [1] and in test [2] was below 5 nM each time.
As to `CN(C(=O)Nc1cc(C(F)(F)C(F)(F)F)ccn1)C1CC2(C1)CN(C(=O)c1cnn3ccn(C)c13)C2` [Example 305, 1-methyl-1-(2-(1-methyl-1H-imidazo[1,2-b]pyrazole-7-carbonyl)-2-azaspiro[3.3]heptan-6-yl)-3-(4-(perfluoroethyl)pyridin-2-yl)urea], the Ki in test [1] is 5 to 25 nM; in test [2], below 5 nM.
For `O=C(Nc1cccc(C(F)(F)F)c1)NC1CC2(C1)CN(C(=O)c1cnn3cc(CNC4COC4)ccc13)C2` [Example 116, 1-(2-(6-((oxetan-3-ylamino)methyl)pyrazolo[1,5-a]pyridine-3-carbonyl)-2-azaspiro[3.3]heptan-6-yl)-3-(3-(trifluoromethyl)phenyl)urea], in that order: 5 to 25 nM and below 5 nM.
For `CN(C(=O)Nc1cc(C(F)(F)F)ccn1)C1CC2(C1)CN(C(=O)c1cnn3ccn(CCO)c13)C2` [Example 209, 1-(2-(1-(2-hydroxyethyl)-1H-imidazo[1,2-b]pyrazole-7-carbonyl)-2-azaspiro[3.3]heptan-6-yl)-1-methyl-3-(4-(trifluoromethyl)pyridin-2-yl)urea], in that order: 5 to 25 nM and below 5 nM.
With `Cn1cc(N2CCOCC2)n2ncc(C(=O)N3CC4(CC(NC(=O)Nc5cccc(C(F)(F)F)c5)C4)C3)c12` [Example 192, 1-(2-(1-methyl-3-morpholino-1H-imidazo[1,2-b]pyrazole-7-carbonyl)-2-azaspiro[3.3]heptan-6-yl)-3-(3-(trifluoromethyl)phenyl)urea], the Ki in test [1] and in test [2] was 25 to 100 nM in each case.
Take `Cc1ccc(OC(F)(F)F)cc1NC(=O)N(C)C1CC2(C1)CN(C(=O)c1ccnc3[nH]ncc13)C2` [Example 188, 1-(2-(1H-pyrazolo[3,4-b]pyridine-4-carbonyl)-2-azaspiro[3.3]heptan-6-yl)-1-methyl-3-(2-methyl-5-(trifluoromethoxy)phenyl)urea]: the Ki in test [1] was 5 to 25 nM; in test [2] it was below 5 nM.
Regarding `CN(C(=O)Nc1cc(OC(F)(F)F)ccn1)C1CC2(C1)CN(C(=O)c1cnn3cc(-c4cnn(C)c4)ccc13)C2` [Example 242, 1-(2-(6-(1,2-dimethyl-1H-214-pyrazol-4-yl)pyrazolo[1,5-a]pyridine-3-carbonyl)-2-azaspiro[3.3]heptan-6-yl)-1-methyl-3-(4-(trifluoromethoxy)pyridin-2-yl)urea], the Ki in test [1] is 5 to 25 nM; in test [2] it was below 5 nM.
For `Cc1c(F)cc(C(F)(F)F)cc1NC(=O)N(C)C1CC2(C1)CN(C(=O)c1cnn3ccn(C)c13)C2` [Example 283, 3-(3-fluoro-2-methyl-5-(trifluoromethyl)phenyl)-1-methyl-1-(2-(1-methyl-1H-imidazo[1,2-b]pyrazole-7-carbonyl)-2-azaspiro[3.3]heptan-6-yl)urea], in that order: 5 to 25 nM and below 5 nM.
The corresponding values for `O=C(Nc1cccc(C(F)(F)F)c1)NC1CC2(C1)CN(c1nccn3cncc13)C2` [Example 149, 1-(2-(imidazo[1,5-a]pyrazin-8-yl)-2-azaspiro[3.3]heptan-6-yl)-3-(3-(trifluoromethyl)phenyl)urea] are below 5 nM and below 5 nM.
The corresponding values for `Cc1ccc(OC(F)(F)F)cc1NC(=O)N(C)C1CC2(C1)CN(C(=O)c1ncnc3ccsc13)C2` [Example 280, 1-methyl-3-(2-methyl-5-(trifluoromethoxy)phenyl)-1-(2-(thieno[3,2-d]pyrimidine-4-carbonyl)-2-azaspiro[3.3]heptan-6-yl)urea] are below 5 nM and below 5 nM.
Consider `Cn1ccn2ncc(C(=O)N3CC4(CC(NC(=O)Nc5cccc(C(F)(F)F)c5)C4)C3)c12` [Example 9, 1-(2-(1-methyl-1H-imidazo[1,2-b]pyrazole-7-carbonyl)-2-azaspiro[3.3]heptan-6-yl)-3-(3-(trifluoromethyl)phenyl)urea], for which the Ki in test [1] and in test [2] was below 5 nM each time.
As for `O=C(Nc1cc(C(F)(F)F)ccn1)NC1CC2(C1)CN(C(=O)c1ncnc3ccsc13)C2` [Example 90, 1-(2-(thieno[3,2-d]pyrimidine-4-carbonyl)-2-azaspiro[3.3]heptan-6-yl)-3-(4-(trifluoromethyl)pyridin-2-yl)urea], the Ki in test [1] and in test [2] was below 5 nM each time.
On to `Cc1ncc(-c2ccc3c(C(=O)N4CC5(CC(N(C)C(=O)Nc6cncc(C(F)(F)F)c6)C5)C4)cnn3c2)s1` [Example 234, 1-methyl-1-(2-(6-(2-methylthiazol-5-yl)pyrazolo[1,5-a]pyridine-3-carbonyl)-2-azaspiro[3.3]heptan-6-yl)-3-(5-(trifluoromethyl)pyridin-3-yl)urea], for which the Ki in test [1] was 5 to 25 nM; in test [2] it was below 5 nM.
For `Cn1ccn2ncc(C(=O)N3CC4(CC(OC(=O)Nc5cncc(C(F)(F)F)c5)C4)C3)c12` [Example 146, 2-(1-methyl-1H-imidazo[1,2-b]pyrazole-7-carbonyl)-2-azaspiro[3.3]heptan-6-yl(5-(trifluoromethyl)pyridin-3-yl)carbamate], in that order: 5 to 25 nM and below 5 nM.
For `CN(C(=O)Nc1cc(C(C)(C)C)no1)C1CC2(C1)CN(C(=O)c1cnn3ccn(C)c13)C2` [Example 215, 3-(3-(tert-butyl)isoxazol-5-yl)-1-methyl-1-(2-(1-methyl-1H-imidazo[1,2-b]pyrazole-7-carbonyl)-2-azaspiro[3.3]heptan-6-yl)urea], in that order: 25 to 100 nM and 5 to 25 nM.

The values above are taken from patent US20260285855A1, “HETEROARYL DERIVATIVES AS DDRS INHIBITORS” (CHIESI FARMACEUTICI S.P.A., priority 2023, published 2026).
